# Test results: patent US7087424B1, “Method of controlling fungal pathogens, and agents useful for same” (priority 1999, dated 2006)
# Where two headings read alike, the source gives them in different places.
# How the values were obtained:
# [1] = test system: Botrytis fabae (Chocolate Spot Fungus); assay: in vitro bioassays against B. fabae; type: cell-based
# Description: Accordingly, it is within the scope of the present invention to produce transgenic faba bean plants which produce sugar acids, using the methods described herein, to enhance tolerance of faba beans to B. fabae.
# take-all fungus = assay: agar overlay / PDA plate bioassay against take-all fungus; type: cell-based, G. graminis var tritici; settings: for zone of inhibition at 7500 µg/disc / zone of inhibition at 12500 µg/disc / zone of inhibition at 25000 µg/disc: Gaeumannomyces graminis, read-out: Clearance zone radii; for zone of inhibition at 7500 µg/disc: amount 7.5 mg; for zone of inhibition at 12500 µg/disc: amount 12.5 mg; for zone of inhibition at 25000 µg/disc: amount 25.0 mg; for bioactivity against take-all: purified acids, PDA plate bioassay, FIG. 6A/6B; for protection against take-all: summary of Table 2; for inhibition zone against take-all fungus: FIG. 6B, 12.5 mg purified sugar acid, agar overlay bioassay
# Description: A modification of the agar plug assay (Poplawsky et al., 1988) was used to assay for bioactivity of extracts of Pseudomonas strain AN5, or derivative strains thereof, against take-all fungus, wherein an agar overlay assay was used to test activity of specific fractions. This assay involves macerating the take-all fungus grown in Potato Dextrose (PD) broth and seeding it to a Potato Dextrose Agar (PDA) overlay. This PDA overlay was poured onto thick PDA plates. Fractions to be tested for activity were spotted on top of the overlay, and the plates were dried and incubated at 16° C. for 3–5 days.
# Active fractions were identified by the appearance of a clearance zone in the plates, within an opaque background of cultured fungus.
# [2] = media pH with purified acids (Table 2); type: physicochemical
# [3] = cited from earlier work
# [4] = cited from earlier work; remark: listed apart in the source
Structure (SMILES),media pH ([2]; amount 25.0 mg),media pH ([2]; amount 4.2 to 8.4 mg),suppression of growth of B. fabae [1],"relation of amount used to size of inhibition zone (take-all fungus; FIG. 6A, 25, 15, 12.5, 7.5 mg pure gluconic acid)",zone of inhibition at 7500 µg/disc (take-all fungus),zone of inhibition at 12500 µg/disc (take-all fungus),zone of inhibition at 25000 µg/disc (take-all fungus),bioactivity against take-all (take-all fungus),protection against take-all (take-all fungus),inhibition zone against take-all fungus (take-all fungus),biological activity against take-all relative to gluconic acid (take-all fungus),solubility ([3]; in chloroform and methylene chloride),"solubility ([3]; in water, methanol and ethyl acetate)",pKa [4]
"O=C(O)[C@H](O)[C@@H](O)[C@H](O)[C@H](O)CO [Gluconic acid, gluconic acid]",about 5.0,,suppress the growth and/or reproduction,positive correlation,7 mm,10 mm,20 mm,strong biologically activity,confers protection,,,,,
"O=C1O[C@H]([C@@H](O)CO)C(O)=C1O [Ascorbic acid, ascorbic acid]",1.9,,,,0 mm,9 mm,20 mm,possessed activity,,strong inhibition zones,,,,
"O=C([O-])[C@H](O)[C@@H](O)[C@H](O)[C@H](O)CO.[Na+] [Sodium gluconate, reference compound]",about 7.0,,,,0 mm,0 mm,0 mm,,did not confer significant protection,,,,,
"O=C[C@H](O)[C@@H](O)[C@@H](O)[C@H](O)C(=O)O [Galacturonic acid, galacturonic acid]",1.7,,,,7 mm,20 mm,25 mm,,,,not as strong as gluconic acid,,,
"O=C(O)c1cccc2nc3ccccc3nc12 [PCA, Phenazine-1-carboxylic acid]",,,,,,,,,,,,highly soluble,insoluble,
"O=C(O)CCCC(=O)O [Glutaric acid, glutaric acid]",2.0,,,,15 mm,20 mm,25 mm,possessed activity,,strong inhibition zones,,,,4.31

# More lines, main results first:
media pH ([2]; amount 25.0 mg),media pH ([2]; amount 4.2 to 8.4 mg),Structure (SMILES),suppression of growth of B. fabae [1],"relation of amount used to size of inhibition zone (take-all fungus; FIG. 6A, 25, 15, 12.5, 7.5 mg pure gluconic acid)",zone of inhibition at 7500 µg/disc (take-all fungus),zone of inhibition at 12500 µg/disc (take-all fungus),zone of inhibition at 25000 µg/disc (take-all fungus),bioactivity against take-all (take-all fungus),protection against take-all (take-all fungus),inhibition zone against take-all fungus (take-all fungus),biological activity against take-all relative to gluconic acid (take-all fungus),solubility ([3]; in chloroform and methylene chloride),"solubility ([3]; in water, methanol and ethyl acetate)",pKa [4]
1.5,,"O=C(O)CC(O)C(=O)O (stereo not shown) [Malic acid, malic acid]",,,10 mm,20 mm,25 mm,possessed activity,,strong inhibition zones,,,,
,2.4,"CC(=O)O [Acetic acid, reference compound]",,,,,,,,,,,,
1.7,,"O=C[C@H](O)[C@@H](O)[C@H](O)[C@H](O)C(=O)O [Glucuronic acid, glucuronic acid]",,,0 mm,10 mm,20 mm,possessed activity,,strong inhibition zones,,,,
